Measured values: article PMC3934894, “Inhibition of Human and Yeast 20S Proteasome by Analogues of Trypsin Inhibitor SFTI-1” (PLoS ONE, 2014)

Assays:
[1] = tested on: bovine α-chymotrypsin; set-up: method as in PMID 15746161; details: determined previously in the authors' laboratory; cited from earlier work
[2] = biological target: human 20S proteasome, caspase-like (C-L) activity (Homo sapiens, UniProt P28072); assay: C-L activity of SDS-activated human 20S proteasome (Z-LLE-AMC); details: read-out: C-like Human 20S IC50; SDS-activated human 20S, pH 8.1, 37°C, Z-LLE-AMC 79 µM
Method: An assay buffer was composed of 50 mM Tris-HCl (pH 8.1) and 0.02% (w/v) SDS (exceptionally, T-L activity was measured in Tris buffer without SDS, that may trigger precipitation of substrates containing the guanidino group [21]). […] The SFTI-1 analogues were incubated with 20S proteasome in assay buffer at 37°C for 30 min. Reactions were performed in 96-well black BRAND plates (Germany). The final volume of the solution in each well was 200 µL. […] Proteasomal subsite activities were determined by monitoring the AMC liberation over time with a Fluorostar Omega (BMG Labtech, Germany) using excitation and emission wavelengths of 380 nm and 450 nm, respectively. […] Association constants Ka were measured as described previously [14] and calculated using a two-parameter fit model (using the GraFit software package).

[3] = tested on: 20S proteasome; set-up: method as in PMID 19054805; details: cited from earlier work
[4] = tested on: bovine β-trypsin; details: cited from earlier work
[5] = tested on: HL-60; set-up: method as in PMID 10805568; details: human cancer cells HL-60; read-out: cytotoxic activity IC50, HL-60; cited from earlier work
[6] = tested on: HCT-116; set-up: method as in PMID 10805568; details: human cancer cells HCT-116; read-out: cytotoxic activity IC50, HCT-116; cited from earlier work
[7] = tested on: 20S proteasome, T-L activity; details: cited from earlier work
[8] = tested on: 20S proteasome, ChT-L activity; details: cited from earlier work
[9] = tested on: 20S proteasome, C-L activity; details: cited from earlier work

In the case of [Phe^5]SFTI-1, the “Ka with bovine α-chymotrypsin” value [1] is listed as 2e+09 M⁻¹.

In the case of sunflower trypsin inhibitor SFTI-1, the IC50 [2] is given as 58200 nM, the “inhibition of 20S proteasome” value [3] is given as “does not cause any inhibition” and the “association constant Ka with trypsin” value [4] is given as 1.1e+10 M⁻¹. The Ki ([4]; read-out: inhibitory constant Ki, trypsin) was 0.5 nM.

In the case of C/C=C\NC(=O)[C@H]1NC(=O)[C@H](CC(N)=O)NC(=O)[C@@H](NC(=O)C(=O)[C@@H](C)CC)Cc2ccc(O)c(c2)-c2cccc3c2NC(=O)[C@@]3(O)[C@@H]1O [TMC-95A], the IC50 [5] is listed as 9800 nM, the IC50 [6] is listed as 4400 nM and the IC50 ([7]; read-out: IC50 T-L activity of 20S proteasome) is listed as 200 nM. The Ki ([7]; read-out: Ki app (apparent Ki constant) T-L) was 810 nM, the IC50 ([8]; read-out: IC50 ChT-L activity of 20S proteasome) was 5.4 nM and the Ki ([8]; read-out: Ki app (apparent Ki constant) ChT-L) was 1.1 nM. For the same molecule, the IC50 ([9]; read-out: IC50 C-L activity of 20S proteasome) was 60 nM and the Ki ([9]; read-out: Ki app (apparent Ki constant) C-L) was 29 nM.
